From ChEMBL document CHEMBL1201862, “PubChem BioAssay data set” (2004)
Calls of active or inactive are those of the source.

How the values were obtained:
[1] = luciferase reporter signal suppression in cells – H4 neuroglioma cells, luminescence, dose response (AID 1990); type: functional, cell-based
[2] = cells; type: functional, cell-based
[3] = Luminescence Cell-Based Dose Response HTS to Identify Inhibitors of 5'UTR Stem-Loop Driven Prion Protein mRNA Translation in H4 Neuroglioblastoma Cells. [Related pubchem assays: 1827 (Project Summary), 1813 (Primary HTS)]; type: functional
[4] = alpha-synuclein stem-loop luciferase translation blockers – H4 neuroglioma cells, luminescence, confirmation (AID 1988); type: functional, cell-based
[5] = cells; type: functional, cell-based; remark: listed apart in the source
[6] = target: Paired box protein Pax-8 (Homo sapiens, UniProt Q06710); experiment: PAX8 transcriptional activity inhibition in RMG-I – RMG-I cells, luciferase, cherry-pick, dose response (AID 687027); type: functional, cell-based;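 further: luciferase reporter driven by Pax8 target thyroperoxidase promoter measured by SteadyGlo luminescence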
Paired box protein Pax-8, sequence (Q06710 whole entry): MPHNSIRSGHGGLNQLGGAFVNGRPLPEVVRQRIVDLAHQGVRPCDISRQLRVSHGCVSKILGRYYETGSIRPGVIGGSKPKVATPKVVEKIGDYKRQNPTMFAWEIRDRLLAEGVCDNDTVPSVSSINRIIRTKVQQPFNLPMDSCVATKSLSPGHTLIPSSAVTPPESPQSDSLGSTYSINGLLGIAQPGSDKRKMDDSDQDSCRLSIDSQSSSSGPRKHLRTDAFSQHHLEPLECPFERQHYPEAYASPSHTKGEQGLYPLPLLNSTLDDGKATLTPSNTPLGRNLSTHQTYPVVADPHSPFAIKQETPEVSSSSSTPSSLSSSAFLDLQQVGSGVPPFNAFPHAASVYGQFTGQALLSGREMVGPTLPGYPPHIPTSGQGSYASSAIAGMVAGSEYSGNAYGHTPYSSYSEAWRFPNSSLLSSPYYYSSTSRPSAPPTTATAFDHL

[7] = target: T1, Cytochrome P450 1A2 (Homo sapiens, UniProt P05177);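 further: PubChem cytochrome P450 panel assay, CYP1A2 panel member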
T1 sequence (P05177 whole entry): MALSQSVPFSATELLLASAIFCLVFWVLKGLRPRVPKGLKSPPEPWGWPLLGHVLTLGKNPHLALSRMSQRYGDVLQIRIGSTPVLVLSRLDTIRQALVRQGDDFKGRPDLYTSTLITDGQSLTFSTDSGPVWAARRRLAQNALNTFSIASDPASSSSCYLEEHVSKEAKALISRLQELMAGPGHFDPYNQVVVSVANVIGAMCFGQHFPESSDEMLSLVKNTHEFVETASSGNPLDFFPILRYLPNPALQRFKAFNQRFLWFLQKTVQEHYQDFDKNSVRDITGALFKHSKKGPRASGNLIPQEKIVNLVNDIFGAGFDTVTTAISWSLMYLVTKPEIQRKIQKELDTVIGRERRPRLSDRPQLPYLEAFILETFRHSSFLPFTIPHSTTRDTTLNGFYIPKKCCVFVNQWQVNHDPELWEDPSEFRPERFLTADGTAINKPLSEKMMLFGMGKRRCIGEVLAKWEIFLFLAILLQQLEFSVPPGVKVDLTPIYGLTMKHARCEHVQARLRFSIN

[8] = target: Cytochrome P450 3A4 (Homo sapiens, UniProt P08684);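 further: CYP3A4 tested as one member of a cytochrome P450 panel screen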
Cytochrome P450 3A4, sequence (P08684 whole entry, the tested form may be a part): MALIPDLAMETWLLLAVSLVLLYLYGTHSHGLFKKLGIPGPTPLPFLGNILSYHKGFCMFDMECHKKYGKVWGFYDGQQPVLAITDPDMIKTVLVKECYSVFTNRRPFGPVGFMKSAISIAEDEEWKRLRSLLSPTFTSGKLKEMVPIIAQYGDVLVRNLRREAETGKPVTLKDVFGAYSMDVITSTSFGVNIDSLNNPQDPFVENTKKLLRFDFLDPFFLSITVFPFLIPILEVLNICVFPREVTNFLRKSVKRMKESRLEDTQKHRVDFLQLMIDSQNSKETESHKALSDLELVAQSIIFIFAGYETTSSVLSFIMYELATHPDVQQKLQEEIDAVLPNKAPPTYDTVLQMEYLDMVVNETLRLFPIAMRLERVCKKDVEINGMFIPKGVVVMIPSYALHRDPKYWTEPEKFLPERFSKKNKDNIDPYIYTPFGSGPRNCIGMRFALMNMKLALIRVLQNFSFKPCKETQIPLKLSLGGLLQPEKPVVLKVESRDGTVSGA

[9] = target: T2, Carboxy-terminal domain RNA polymerase II polypeptide A small phosphatase 1 (Homo sapiens, UniProt Q9GZU7); experiment: CTDSP1 inhibitors, concentration-response, biochemical, absorbance readout, ultra-high-throughput screen actives (AID 540297); type: functional
T2 sequence (Q9GZU7 whole entry): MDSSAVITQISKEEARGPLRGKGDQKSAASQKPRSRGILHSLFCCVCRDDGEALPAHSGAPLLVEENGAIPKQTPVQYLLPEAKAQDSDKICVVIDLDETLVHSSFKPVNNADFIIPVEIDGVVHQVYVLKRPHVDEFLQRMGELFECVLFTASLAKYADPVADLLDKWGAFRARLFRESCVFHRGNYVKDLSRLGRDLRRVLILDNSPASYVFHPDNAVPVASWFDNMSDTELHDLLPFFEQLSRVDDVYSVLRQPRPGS

[10] = target: Luciferin 4-monooxygenase (Photinus pyralis, UniProt P08659); experiment: inhibition of purified Photinus pyralis luciferase – biochemical, luminescence, dose response (AID 1891)
Luciferin 4-monooxygenase, sequence (P08659 whole entry): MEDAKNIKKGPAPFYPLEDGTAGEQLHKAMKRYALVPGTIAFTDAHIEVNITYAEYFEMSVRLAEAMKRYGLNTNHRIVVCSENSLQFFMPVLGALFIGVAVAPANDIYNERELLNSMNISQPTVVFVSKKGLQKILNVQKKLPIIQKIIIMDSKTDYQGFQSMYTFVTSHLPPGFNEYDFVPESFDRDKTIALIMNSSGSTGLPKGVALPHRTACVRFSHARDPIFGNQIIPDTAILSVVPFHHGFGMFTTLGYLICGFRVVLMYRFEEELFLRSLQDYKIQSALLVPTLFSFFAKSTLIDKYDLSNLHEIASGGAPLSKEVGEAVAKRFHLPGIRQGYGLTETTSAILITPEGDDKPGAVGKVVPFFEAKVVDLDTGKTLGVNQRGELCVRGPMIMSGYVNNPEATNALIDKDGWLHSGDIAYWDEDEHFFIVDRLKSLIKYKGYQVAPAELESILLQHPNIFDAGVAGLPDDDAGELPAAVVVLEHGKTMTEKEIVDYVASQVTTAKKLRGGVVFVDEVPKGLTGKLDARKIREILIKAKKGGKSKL

[11] = Luminescence Cell-Based Dose Confirmation HTS to Identify Inhibitors of Platelet Dense Granule Release. [Related pubchem assays: 1663 (Primary HTS), 1678 (Summary of Project)]; type: functional
[12] = target: Induced myeloid leukemia cell differentiation protein Mcl-1 (Homo sapiens, UniProt Q07820); type: functional
Induced myeloid leukemia cell differentiation protein Mcl-1, sequence (Q07820 whole entry): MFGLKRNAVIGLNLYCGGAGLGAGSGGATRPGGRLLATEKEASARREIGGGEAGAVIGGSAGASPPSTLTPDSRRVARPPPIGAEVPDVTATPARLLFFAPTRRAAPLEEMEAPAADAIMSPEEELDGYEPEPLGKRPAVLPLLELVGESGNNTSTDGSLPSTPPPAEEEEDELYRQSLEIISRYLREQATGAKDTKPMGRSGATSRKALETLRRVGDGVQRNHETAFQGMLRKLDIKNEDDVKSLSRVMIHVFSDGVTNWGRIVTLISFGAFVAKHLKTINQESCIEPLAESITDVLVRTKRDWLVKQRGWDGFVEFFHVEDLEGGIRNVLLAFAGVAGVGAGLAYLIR

[13] = P. falciparum Dd2 growth inhibitors, dose response, SYBR Green, cherry-picked samples (AID 1159567); type: functional, cell-based
[14] = NIH-3T3 fibroblast cytotoxicity, dose response, cytotoxicity control, cell-based, fluorescence, Alamar Blue, secondary assay (AID 2327); type: functional;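 further: NIH-3T3 mouse fibroblasts cultured with fluconazole at 8 µg/mL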
[15] = fluconazole-exposed Candida albicans growth modulators – fluorescence, retest, confirmation (AID 2467); type: functional, cell-based
[16] = cells; type: functional
[17] = system: P388/ADR; experiment: cells; type: functional; conditions: Mus musculus
[18] = system: SN12K1; experiment: cells; type: functional; conditions: Homo sapiens
[19] = target: Cytochrome P450 2C19 (Homo sapiens, UniProt P33261); experiment: Cytochrome panel assay with activity outcomes. Panel member name: p450-cyp2c19 Compounds with AC50 equal or less than 10 uM are considered active; type: functional; conditions: read-out: AC50
Cytochrome P450 2C19, sequence (P33261 whole entry): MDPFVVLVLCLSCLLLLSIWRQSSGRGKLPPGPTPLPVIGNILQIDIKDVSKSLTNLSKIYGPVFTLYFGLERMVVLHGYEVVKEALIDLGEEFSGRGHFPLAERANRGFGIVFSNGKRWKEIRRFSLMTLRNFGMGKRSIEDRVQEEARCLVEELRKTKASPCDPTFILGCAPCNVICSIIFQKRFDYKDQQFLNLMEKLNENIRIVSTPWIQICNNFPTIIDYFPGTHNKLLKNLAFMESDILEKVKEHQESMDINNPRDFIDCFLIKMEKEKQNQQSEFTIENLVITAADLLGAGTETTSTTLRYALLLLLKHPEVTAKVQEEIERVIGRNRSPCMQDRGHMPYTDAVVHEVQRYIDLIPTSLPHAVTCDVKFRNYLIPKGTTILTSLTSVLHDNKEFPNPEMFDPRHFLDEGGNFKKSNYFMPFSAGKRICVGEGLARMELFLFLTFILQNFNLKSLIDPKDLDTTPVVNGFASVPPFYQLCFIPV

[20] = target: Cytochrome P450 2C9 (Homo sapiens, UniProt P11712)
Cytochrome P450 2C9, sequence (P11712 whole entry): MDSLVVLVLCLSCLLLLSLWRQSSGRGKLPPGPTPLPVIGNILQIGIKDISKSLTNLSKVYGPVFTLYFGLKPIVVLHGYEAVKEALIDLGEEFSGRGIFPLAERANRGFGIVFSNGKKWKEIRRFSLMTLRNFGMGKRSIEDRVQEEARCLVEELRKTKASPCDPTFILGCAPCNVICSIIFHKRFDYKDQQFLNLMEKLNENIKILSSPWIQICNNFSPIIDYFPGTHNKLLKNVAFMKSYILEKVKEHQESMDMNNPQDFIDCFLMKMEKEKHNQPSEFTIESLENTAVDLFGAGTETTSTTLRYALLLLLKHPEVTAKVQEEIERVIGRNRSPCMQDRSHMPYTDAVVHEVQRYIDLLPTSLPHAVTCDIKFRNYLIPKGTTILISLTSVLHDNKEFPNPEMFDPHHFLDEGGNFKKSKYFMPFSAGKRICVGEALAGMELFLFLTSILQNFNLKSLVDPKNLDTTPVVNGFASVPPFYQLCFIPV

[21] = target: FAD-linked sulfhydryl oxidase ALR (Homo sapiens, UniProt P55789); experiment: ALR-catalysed DTT oxidation blockers – biochemical, H2O2 detection, luminescence, cherry-pick, dose response (AID 493248)
FAD-linked sulfhydryl oxidase ALR, sequence (P55789 whole entry): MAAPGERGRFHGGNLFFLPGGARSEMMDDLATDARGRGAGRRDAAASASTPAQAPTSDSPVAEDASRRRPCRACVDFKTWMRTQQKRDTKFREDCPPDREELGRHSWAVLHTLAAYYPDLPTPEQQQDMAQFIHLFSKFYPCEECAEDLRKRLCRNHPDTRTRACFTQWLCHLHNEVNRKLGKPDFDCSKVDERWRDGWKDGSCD

[22] = target: T3, Rac GTPase-activating protein 1 (Homo sapiens, UniProt Q9H0H5); experiment: blockers of MgcRacGAP-driven Rac1 GTP hydrolysis – biochemical, ADP Hunter fluorescence, primary and confirmatory, confirmation (AID 624330); type: functional
T3 sequence (Q9H0H5 whole entry): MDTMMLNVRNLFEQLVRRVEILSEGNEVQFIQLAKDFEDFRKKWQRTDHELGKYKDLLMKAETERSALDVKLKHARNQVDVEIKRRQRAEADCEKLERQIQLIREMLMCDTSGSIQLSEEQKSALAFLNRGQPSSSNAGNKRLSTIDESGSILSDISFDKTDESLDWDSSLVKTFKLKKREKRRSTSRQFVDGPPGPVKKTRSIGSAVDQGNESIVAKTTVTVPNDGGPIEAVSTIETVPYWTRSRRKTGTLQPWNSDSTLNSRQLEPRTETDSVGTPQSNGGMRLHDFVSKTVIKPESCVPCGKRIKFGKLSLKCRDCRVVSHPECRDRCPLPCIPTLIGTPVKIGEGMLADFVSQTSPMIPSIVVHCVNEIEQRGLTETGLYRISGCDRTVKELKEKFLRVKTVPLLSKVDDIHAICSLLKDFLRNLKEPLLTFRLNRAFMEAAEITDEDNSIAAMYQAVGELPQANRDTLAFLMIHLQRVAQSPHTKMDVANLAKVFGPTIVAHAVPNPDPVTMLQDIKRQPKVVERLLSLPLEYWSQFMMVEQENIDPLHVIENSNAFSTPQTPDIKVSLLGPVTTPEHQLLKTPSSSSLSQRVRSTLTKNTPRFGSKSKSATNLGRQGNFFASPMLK

C=CCOc1nc(-c2ccccc2Cl)nc2ccccc12
EC50 [1]: 69.1 µM (active) | EC50 [2]: > 350 µM (not active) | EC50 [3]: > 120 µM (not active) | EC50 [4]: 17.4 µM (active) | EC50 [5]: > 350 µM (not active)

CCCN(C)C[C@H]1OCCCC[C@@H](C)Oc2ccc(NC(=O)Nc3ccc(C(F)(F)F)cc3)cc2C(=O)N([C@H](C)CO)C[C@H]1C
AC50 [6]: 23.1 µM (active)

COc1ccc(C(=O)N2CCC[C@@]3(CCN(C(=O)NC(C)C)C3)C2)cc1
AC50 [7]: 12.6 µM (inconclusive) | AC50 [8]: 20 µM (inconclusive)

COc1ccc(CNC(=O)/C=C\c2ccc3[nH]cc(CCN(C)C)c3c2)cc1
AC50 [7]: 39.8 µM (inconclusive)

CCOc1ccc(C(C)=O)cc1N1C(=O)C2C3C=CC(C3)C2C1=O (centres undefined)
IC50 [9]: 15.8 µM (active)

COc1ccc([N+](=O)[O-])cc1C1NN=C(c2cccc3ccccc23)S1 (centres undefined)
EC50 [10]: > 112 µM (not active) | EC50 [11]: > 112 µM (not active)

Cc1cccc(OCC(=O)NCC(=O)N/N=C/c2cccnc2)c1
EC50 [2]: > 350 µM (not active) | EC50 [5]: > 350 µM (not active)

O=C(CSc1nnc(C2CC2)n1-c1ccccc1)Nc1ccc(N2CCOCC2)cc1
EC50 [10]: > 112 µM (not active) | EC50 [11]: > 112 µM (not active)

O=C(COC(=O)c1ccc(S(=O)(=O)N2CCCCC2)cc1)NCc1ccco1
IC50 [9]: 10.5 µM (active)

CCc1c(C)nc2ccc(OC)cc2c1S
IC50 [12]: 0.628 µM (active)

Cc1cc(Cl)nc(NC(=O)CSc2ccc(Cl)cc2)n1
AC50 [7]: 5.01 µM (inconclusive)

CCS(=O)(=O)N1CCC2(CC1)CN(C(=O)Nc1cccc(F)c1)[C@H](CO)c1c2c2ccc(OC)cc2n1C
AC50 [13]: 4.52 µM (active)

COc1ccc(/C=C(/NC(=O)c2ccccc2)c2nc3cc(Cl)ccc3[nH]2)cc1OC
EC50 [14]: > 150 µM (inconclusive) | EC50 [15]: 4.44 µM (active)

CCN(C(=O)CSc1nc[nH]n1)C1CCCCC1
EC50 [2]: > 350 µM (not active) | EC50 [5]: > 350 µM (not active)

CCNc1nc(Oc2ccc(=O)n(-c3ccccc3)n2)nc(N(C)C)n1
EC50 [10]: > 112 µM (not active) | EC50 [11]: > 112 µM (not active)

CC(=O)NC1=C(NC2CCS(=O)(=O)C2)C(=O)c2ccccc2C1=O (centres undefined)
IC50 [12]: 2.54 µM (active)

CCC1(c2ccc(Cl)cc2)N=C(S)N(c2ccccc2)N1 (centres undefined)
EC50 [14]: 14.2 µM (active)

Cn1c(=O)c(Oc2ccc(Cl)cc2)c(O)c2ccccc21
IC50 [16]: 3.7 µM (active)

Cn1cc(SCC(=O)Nc2nc3ccccc3s2)c2ccccc21
EC50 [10]: > 112 µM (not active) | EC50 [11]: > 112 µM (not active)

CCOC(=O)c1cc(C(O)(C(=O)OC)C(F)(F)F)c(/N=C/N(C)C)o1 (centres undefined)
IC50 [12]: < 0.4 µM (not active)

Cc1cccc(OCc2nnc(SCC(=O)Nc3ncc(C)s3)o2)c1
EC50 [10]: > 112 µM (not active) | EC50 [11]: > 112 µM (not active)

CCCc1cn([C@@H]2C[C@@H]3O[C@H](CO)CC[C@@H]3O[C@@H]2CCc2ccc(-c3cccc(OC)c3)cc2)nn1
AC50 [13]: 2.81 µM (active)

CC(C)Cc1nc(N2CCN(C(=O)c3ccccc3)CC2)c(C#N)c2c1CCC2
AC50 [7]: 25.1 µM (inconclusive)

COc1cccc(-c2nc(-c3ccc(C(=O)O)cc3)no2)c1
EC50 [10]: 0.794 µM (active) | EC50 [11]: 4.03 µM (active)

CCOC(=O)COc1ccc(C(=O)NC2CCCCC2)cc1
IC50 [16]: 7.69 µM (active)

CN(C)c1cccc(OC(=O)NCCCl)c1
GI50 [17]: 31 µM (inactive) | GI50 [18]: > 100 µM (inactive)

COc1cc2c(cc1OC)C(c1ccc(N)cc1)=NNC(=O)C2
AC50 [19]: 15.8 µM (inconclusive) | AC50 [7]: 39.8 µM (inconclusive) | AC50 [20]: 39.8 µM (inconclusive)

O=C1NC(=O)N(c2ccc(C(=O)O)cc2)C(=O)/C1=C/c1c[nH]c2ccccc12
AC50 [21]: 0.177 µM (active) | IC50 [22]: 97.5 µM (active)

COc1ccc(NC(=O)c2cc(S(=O)(=O)N3CCOCC3)cn2C)c(OC)c1
EC50 [10]: > 112 µM (not active) | EC50 [11]: > 112 µM (not active)

Cc1ccc(CN2CC(C(=O)OCc3ccccc3Cl)CC2=O)cc1 (centres undefined)
IC50 [16]: 7.41 µM (active)

O=C(Cc1ccc(Cl)cc1)Nc1ccc(Br)cc1
EC50 [14]: > 150 µM (inconclusive)

N#C/C(=C\c1ccc[nH]1)C(=O)Nc1ccccc1[N+](=O)[O-]
IC50 [9]: 7.3 µM (active)

CCCCn1c(CCC(=O)O)ccc1-c1cccs1
EC50 [10]: > 112 µM (not active) | EC50 [11]: > 112 µM (not active)

Cc1cccc(NNC(=O)C(=O)NNc2cccc(C)c2)c1
EC50 [14]: 2.38 µM (active)

CC(=O)N1CCC2(CC1)CC(=O)c1cc(OCC(=O)N3CCN(C)CC3)ccc1O2
AC50 [7]: 39.8 µM (inconclusive)

COc1cnn(-c2ccc(Br)cc2)c(=O)c1SCc1ccccc1
IC50 [12]: 3.25 µM (not active)

CCOc1ccc2nc(N=C(S)N(C)C)sc2c1
EC50 [14]: > 150 µM (inactive) | EC50 [15]: 2.33 µM (active)

O=C(c1ccc2c(c1)OCO2)N1CCC2(CC1)Oc1ccc(F)cc1C(=O)C21CC(c2cccnc2)=NO1 (centres undefined)
EC50 [14]: 49.2 µM (active) | EC50 [15]: 0.566 µM (inconclusive)

COC(=O)C1CCN(C(=O)COC(=O)CNS(=O)(=O)c2ccc(SC)c([N+](=O)[O-])c2)CC1
IC50 [9]: 13.5 µM (active)

CC1=C(C(N)=O)C(c2ccccn2)n2nc(SCc3ccccc3Cl)nc2N1 (centres undefined)
AC50 [7]: 15.8 µM (inconclusive) | AC50 [20]: 20 µM (inconclusive)

O=C(NCc1ccco1)C1Cc2ccccc2CN1S(=O)(=O)c1ccccc1F (centres undefined)
IC50 [9]: 5.41 µM (active)
